Experiments:
[1] = test system: E. faecalis MB2864; experiment: Strain antibiotic susceptibility phenotype (MIC interpretive standards); type: cell-based
Source text: (§1) The test panel currently includes eight enterococci and 13 staphylococci, which are selected based upon their antibiotic susceptibility profiles. The methicillin-sensitive Staphylococcus aureus (MSSA) strain MB2985 (Smith isolate) is used to assesses the potential for serum protein binding of the compounds. The paired Gram-negative strains ASP #49 (envA−) and ASP #50 (envA+) (M. Salvatore/N. Lee) are included to judge membrane effects. Table 1 presents a detailed description of the strains included in the panel, including some of the sources of the strains of bacteria.

[2] = test system: E. faecium RLA1; experiment: as above; type: cell-based
Source text: as §1

[3] = test system: E. faecalis CL 4877 (VanB); experiment: as above; type: cell-based
Source text: as §1

[4] = test system: E. faecium CL 4931 (VanA); experiment: as above; type: cell-based
Source text: as §1

[5] = test system: E. faecalis CL 5244 (VanB); experiment: as above; type: cell-based
Source text: as §1

[6] = test system: E. faecium CL 5242 (VanA); experiment: as above; type: cell-based
Source text: as §1

[7] = test system: E. faecium CL 5053 (VanA); experiment: as above; type: cell-based
Source text: as §1

[8] = test system: E. gallinarum CL 4886 (VanC); experiment: as above; type: cell-based
Source text: as §1

[9] = test system: VISA/MRSA CL 5705; experiment: as above; type: cell-based, S. aureus; settings: VISA/MRSA CL 5705 (Mu 3)
Source text: as §1

[10] = test system: VISA/MRSA CL 5706; experiment: as above; type: cell-based, S. aureus; settings: VISA/MRSA CL 5706 (Mu 50)
Source text: as §1

[11] = test system: MSSA MB2985; experiment: as above; type: cell-based, Staphylococcus aureus
Source text: as §1

[12] = test system: MRSA COL; experiment: as above; type: cell-based, Staphylococcus aureus
Source text: as §1

[13] = test system: MRSA CL 3033; experiment: as above; type: cell-based, Staphylococcus aureus
Source text: as §1

[14] = test system: MRCNS (S. hom.) CL 227; experiment: as above; type: cell-based
Source text: as §1

[15] = test system: MRCNS (S. hom.) CL 546; experiment: as above; type: cell-based
Source text: as §1

[16] = test system: MRCNS (S. haem.) CL 171; experiment: as above; type: cell-based
Source text: as §1

[17] = test system: MRCNS (S. haem.) CL 202; experiment: as above; type: cell-based
Source text: as §1

[18] = test system: MRCNS (S. epi.) CL 3069; experiment: as above; type: cell-based
Source text: as §1

[19] = test system: methicillin-sensitive Staphylococcus aureus (MSSA) strain MB2985; settings: due to binding of the antibiotic; cited from earlier work

In the case of `CC1(C)S[C@@H]2[C@H](NC(=O)[C@H](N)c3ccccc3)C(=O)N2[C@H]1C(=O)O` [Amp, ampicillin], the “Phenotype Amp” value [1] is reported as “S (≦8)”, the “Phenotype Amp” value [2] is reported as “R (≧16)” and the “Phenotype Amp” value [3] is reported as “S (≦8)”. For the same compound, the “Phenotype Amp” value [4] was “R (≧16)”, the “Phenotype Amp” value [5] was “S (≦8)” and the “Phenotype Amp” value [6] was “R (≧16)”. For the same compound, the “Phenotype Amp” value [7] was “R (≧16)”, the “Phenotype Amp” value [8] was “S (≦8)” and the “Phenotype Amp” value [9] was “R (≧0.5)”. For the same compound, the “Phenotype Amp” value [10] was “R (≧0.5)”, the “Phenotype Amp” value [11] was “S (≦0.25)” and the “Phenotype Amp” value [12] was “R (≧0.5)”. The “Phenotype Amp” value [13] was “R (≧0.5)”.
With gentamicin the “Phenotype Gent” value [1] was “S (≦500)”, the “Phenotype Gent” value [2] was “S (≦500)” and the “Phenotype Gent” value [3] was “R (>500)”. The “Phenotype Gent” value [4] was “R (>500)”, the “Phenotype Gent” value [5] was “S (≦500)” and the “Phenotype Gent” value [6] was “R (>500)”. The “Phenotype Gent” value [7] was “R (>500)”, the “Phenotype Gent” value [8] was “R (>500)” and the “Phenotype Gent” value [9] was “R (≧16)”. For the same compound, the “Phenotype Gent” value [10] was “R (≧16)”, the “Phenotype Gent” value [11] was “S (≦4)” and the “Phenotype Gent” value [12] was “S (≦4)”.
For `C[C@@H](O)[C@H]1C(=O)N2C(C(=O)O)=C(SCCN=CN)C[C@H]12` [Ipm, imipenem], the “Phenotype Ipm” value [14] was “R (≧16)”, the “Phenotype Ipm” value [15] was “R (≧16)” and the “Phenotype Ipm” value [16] was “R (≧16)”. The “Phenotype Ipm” value [17] was “R (≧16)”, the “Phenotype Ipm” value [18] was “R (≧16)” and the “Phenotype Ipm” value [9] was “R (≧16)”. The “Phenotype Ipm” value [10] was “R (≧16)”, the “Phenotype Ipm” value [11] was “S (≦4)” and the “Phenotype Ipm” value [12] was “R (≧16)”. For the same compound, the “Phenotype Ipm” value [13] was “R (≧16)”.
With `CN[C@H](CC(C)C)C(=O)N[C@H]1C(=O)N[C@@H](CC(N)=O)C(=O)N[C@H]2C(=O)N[C@H]3C(=O)N[C@H](C(=O)N[C@H](C(=O)O)c4cc(O)cc(O)c4-c4cc3ccc4O)[C@H](O)c3ccc(c(Cl)c3)Oc3cc2cc(c3O[C@@H]2O[C@H](CO)[C@@H](O)[C@H](O)[C@H]2O[C@H]2C[C@](C)(N)[C@H](O)[C@H](C)O2)Oc2ccc(cc2Cl)[C@H]1O` [Van, vancomycin] the “Phenotype Van” value [1] was “S (≦4)”, the “Phenotype Van” value [2] was “S (≦4)” and the “Phenotype Van” value [14] was “S (≦4)”. The “Phenotype Van” value [15] was “S (≦4)”, the “Phenotype Van” value [16] was “S (≦4)” and the “Phenotype Van” value [3] was “R (≧32)”. The “Phenotype Van” value [4] was “R (≧32)”, the “Phenotype Van” value [5] was “R (≧32)” and the “Phenotype Van” value [17] was “S (≦4)”. The “Phenotype Van” value [6] was “R (≧32)”, the “Phenotype Van” value [18] was “S (≦4)” and the “Phenotype Van” value [7] was “R (≧32)”. The “Phenotype Van” value [8] was “I (8-16)”, the “Phenotype Van” value [9] was “S (≦4)” and the “Phenotype Van” value [10] was “I (8-16)”. The “Phenotype Van” value [11] was “S (≦4)”, the “Phenotype Van” value [12] was “S (≦4)” and the “Phenotype Van” value [13] was “S (≦4)”.
For `CCSC1=C(C(=O)O)N2C(=O)[C@H]([C@@H](C)O)[C@H]2S1` [Schering 29482], the “activity in the presence of Human Serum Albumin or Fraction V” value [19] is listed as “reduced activity”.
